This is an account of results in patent publication US11013694B2, “Formulation of a micro drop pill and the preparation method thereof” (TASLY PHARMACEUTICAL GROUP CO., LTD., priority 2013, dated 2021).

The structures appear in SMILES notation. Structures can show the parent of a compound that is named as a salt.

Experiment [1] relates to acute myocardial infarction in rats. The experiment is described as follows: Acute myocardial infarction in rats by coronary artery (LAD) ligature: myocardial infarction rate (MIR). It is filed as in vivo, SD male rats. The conditions noted are these: intragastric pre-administration 7 d (Y 4.5, G 115, F 84 mg/kg).
Source text: (§1) SD male rats, weighing 340˜360 g, were purchased from Beijing Weitonglihua Experimental Animal Co., Ltd, and certification No.: SCXK (Jing) 2007-0001.
(§2) Grouping: the rats were randomly divided into groups according to their body weight: S group (Sham operation group), M group (Model group), Y group (Positive control group, metoprolol tartrate, Lot No. 1201039), F group (CSMDP of the present invention) and G group (CSDP available in China, Lot No. 2011L16); 10 rats in each group.
On the 8th day, the rats were anesthetized intraperitoneally with 10% chloral hydrate (3 ml/kg) and fixed on a small wood plate in a supine position. Pins were inserted under the skin of the right forelimb and both hind limbs, and then the rats were connected with the MedLab-U/8c bio-signals collecting-processing system to record ECG of the rats. Hair on the front wall of the left chest was clipped. Oral tracheal cannula was performed and the animal respirator was connected at a respiratory frequency of 80 breaths/min, tidal volume 3 ml/100 g and I:E=1:1. Chest on the left front chest lateral side was incised to cut the 3′ rib and the pericardium was carefully lifted with forceps to tear apart. […] ECG was recorded continuously for 4 hours. […]
The test system of experiment [2] is heart rate in rats with myocardial infarction. The experiment is described as follows: Heart rate (ECG) in rats with myocardial infarction after ligation. The note with it: 7 d pre-administration. It is filed as in vivo, SD male rats.
Source text: as §1, §2
On the 8th day, the rats were anesthetized intraperitoneally with 10% chloral hydrate (3 ml/kg) and fixed on a small wood plate in a supine position. Pins were inserted under the skin of the right forelimb and both hind limbs, and then the rats were connected with the MedLab-U/8c bio-signals collecting-processing system to record ECG of the rats. Hair on the front wall of the left chest was clipped. Oral tracheal cannula was performed and the animal respirator was connected at a respiratory frequency of 80 breaths/min, tidal volume 3 ml/100 g and I:E=1:1. Chest on the left front chest lateral side was incised to cut the 3′ rib and the pericardium was carefully lifted with forceps to tear apart. […] Medical suture (4-0) was used to transfix LAD and a small amount of myocardial tissue at a distance of about 1˜2 mm from the lower edge of the left atrial appendage and inside interventricular sulcus in the vicinity of the left main trunk of coronary vein. The rats with an elevated J point by 0.1 mV in ECG and pale LVAW (left ventricular anterior wall) indicated a successful modeling. Chest was closed layer by layer. The tracheal tube was removed until the voluntary respiration was recovered in the rats. ECG was recorded continuously for 4 hours.

On to `COCCc1ccc(OCC(O)CNC(C)C)cc1` (stereo not drawn) [Y group, metoprolol tartrate], for which, in experiment [1] (LAD ligation on 8th day, heart taken after 4 h ECG), the “Average wet weight of the infarction region” value is listed as 0.0233 ± 0.0038 g. Further, the “MIR (myocardial infarction rate = wet weight of the infarction region/wet weight of the whole heart x 100%)” value in experiment [1] (LAD ligation, model group 5.07 ± 0.75) is listed as 2.65 ± 0.33 %. Moreover, the heart rate in experiment [2] (0 s after ligation) is 377 ± 48 beat/min; in experiment [2] (5 s after ligation) it was 423 ± 39 beat/min; in experiment [2] (10 s after ligation), 419 ± 41 beat/min; in experiment [2] (5 min after ligation), 424 ± 29 beat/min; in experiment [2] (10 min after ligation), 431 ± 17 beat/min; in experiment [2] (30 min after ligation) it was 413 ± 34 beat/min. The heart rate in experiment [2] (1 h after ligation) is listed as 421 ± 47 beat/min; in experiment [2] (2 h after ligation), 416 ± 33 beat/min; in experiment [2] (3 h after ligation), 380 ± 66 beat/min; in experiment [2] (4 h after ligation), 395 ± 52 beat/min.
